Results: publication PMC4230943, “Mimicking Hypoxia to Treat Anemia: HIF-Stabilizer BAY 85-3934 (Molidustat) Stimulates Erythropoietin Production without Hypertensive Effects” (PLoS ONE, 2014)

How the values were obtained:
[1] = target: T1, PHD2 (Homo sapiens, UniProt Q9GZT9); assay: Prolyl hydroxylase assay (Eu-VBC binding to hydroxylated HIF-1α 556–574 peptide); format: biochemical
T1 construct: made in house; host or cells: Sf9 insect cells (baculovirus, pBacPAC transfer vectors)
Experimental: DELFIA labeling reagent (PerkinElmer) was used to label purified VBC complex with europium according to the manufacturer’s instructions.
The prolyl hydroxylase assay was performed as described previously [32] with minor modifications. […] The immobilized peptide substrate was incubated with the appropriate amount of HIF-PH in buffer containing 20 mM Tris (pH 7.5), 5 mM KCl, 1.5 mM MgCl2, 20 µM 2-oxoglutarate, 10 µM FeSO4, 2 mM ascorbate, 4% protease inhibitors without EDTA (Roche Diagnostics) in a final volume of 100 µl, with or without test compound added at appropriate concentrations. The reaction time was 60 min. To stop the reaction, plates were washed three times with wash buffer.
Hydroxylated biotinyl-HIF-1α 556–574 was incubated with Eu-VBC in 100 µl binding buffer (50 mM Tris [pH 7.5], 120 mM NaCl) for 60 min at room temperature. After washing six times with DELFIA wash buffer (PerkinElmer) and adding 100 µl enhancer solution (PerkinElmer), the amount of bound VBC was determined by measuring time-resolved fluorescence with a Tecan infinite M200 plate reader. Measurements were taken in triplicate or more, and results were expressed as means ± SEM. IC50 values were determined after curve fitting using GraphPad Prism software (GraphPad Software, La Jolla, CA, USA) applying the four-parameter logistic equation to the data sets.
To measure the activity of HIF-PH inhibitors quantitatively, a microplate assay was developed that employed the interaction of the VBC complex with the peptide HIF-1α 556–574 after being hydroxylated at proline 564 by recombinant HIF-PH. Activity of the recombinant enzyme was dependent on the concentrations of several cofactors, 2-oxoglutarate, Fe^2+, and ascorbate, in the reaction mixture.

[2] = system: male Wistar rats; assay: Subtotal nephrectomy (remnant kidney) model; format: in vivo, rat
Experimental: In the chronic disease models of subtotal nephrectomy and inflammation, the sodium salt of BAY 85-3934 was used. For administration in drinking water, BAY 85-3934 sodium and enalapril were prepared as 100 mM sodium bicarbonate saline solutions (adjusted to pH 7) at final concentrations of 80 ppm and 30 ppm, respectively. Sham and vehicle control animals received saline only. Unless otherwise stated, chemicals and reagents were purchased from Sigma-Aldrich.
Subtotal nephrectomy was conducted in adult male Wistar rats. Body weight, blood pressure, hematocrit, and blood cell counts were determined at baseline and thereafter at weekly intervals. At baseline, rats were randomly distributed into two groups: those that underwent subtotal nephrectomy and those that underwent a sham procedure without reduction of renal mass. Surgery was performed in deeply anesthetized (2% isoflurane in air) animals. Kidneys were accessed via a dorsolateral incision of the body wall of about 2 cm in length. The right kidney was removed after ligature of the renal peduncle, and subsequently the upper and lower pole of the left kidney were removed, followed by careful hemostasis. Approximately one third of the initial kidney mass remained (removed tissue was weighed to check this was achieved). In the sham-treated animals, both kidneys were exposed before closure of the wound. Three weeks after surgery, animals were allocated to each group in equal proportions with respect to systolic blood pressure and hematocrit values. For 5 weeks, animals were treated twice weekly with rhEPO (100 IU/kg), or once daily with […] (2.5 mg/kg or 5.0 mg/kg) or vehicle. In experiments using enalapril or a combination of BAY 85-3934 sodium and enalapril, study drugs were administered with drinking water. BAY 85-3934 sodium and enalapril were administered in drinking water at concentrations of 80 ppm and 30 ppm, respectively. This was equivalent to approximately 2 mg/kg/day for enalapril and 5 mg/kg/day for BAY 85-3934. Systolic blood pressure and heart rate were determined using the tail-cuff method (a semi-automatic, non-invasive blood pressure monitor; TSE Systems), with three repeated measurements per animal.
(§1) EPO was measured in plasma samples taken from rodents using a commercial ELISA kit (R&D Systems), according to the manufacturer’s instructions. Relative plasma EPO levels were given in picograms per milliliter. In cynomolgus monkeys, EPO was measured using a combination anti-human EPO ELISAs (R&D Systems and Roche Diagnostics), with human EPO as a standard. Values were given as units per liter. For determination of plasma prorenin from rats, a commercial ELISA (Oxford Biomedical Research) was used according to the manufacturer’s instructions. Hemoglobin in rodent blood samples was determined on a Cell-Dyn 3700 apparatus (Abbott Diagnostics). BAY 85-3934 plasma concentrations were determined after protein precipitation with acetonitrile/ammonium acetate using an internal standard, followed by separation using HPLC/mass spectrometry.
As well as anemia and inflammation, CKD is often accompanied by hypertension, upon which treatment with rhEPO may have an unfavorable impact. The effects of BAY 85-3934 were compared with rhEPO in the remnant kidney (subtotal nephrectomy) model in rats.

[3] = BAY 85-3934 plasma levels after oral administration; format: in vivo, rat
Experimental: Male Wistar rats (240–340 g in body weight) were housed with five animals per cage for at least 1 week before experimentation. Blood samples from rats were collected under anesthesia (2% isoflurane in air) by puncturing the retro-orbital vein plexus with a glass capillary. In a repeat-dose, 26-day experiment, animals were administered vehicle or BAY 85-3934 at doses of 0.5 mg/kg, 1.25 mg/kg, 2.5 mg/kg, and 5 mg/kg. PCV was determined at baseline and at weekly intervals after centrifugation in a hematocrit capillary tube (Brand) for 10 min at full speed in a Haemofuge centrifuge (Heraeus). The number of reticulocytes in 5 µl blood was counted after staining with thiazol orange (Becton Dickinson) according to the manufacturer’s instructions by FACS analysis on a BD FACSCalibur system (Becton Dickinson). The efficacy of BAY 85-3934 (2.5 mg/kg, once-daily, oral) was also compared with that of rhEPO (25 IU/kg, 50 IU/kg, and 100 IU/kg, twice-weekly, s.c. injection). The time-course of induction of EPO mRNA expression and plasma EPO was determined at baseline and 0.5 h, 1 h, 2 h, 4 h, 6 h, and 8 h after oral administration of a single dose of BAY 85-3934 (5 mg/kg).
as §1

[4] = system: A549 cells stably transfected with the HIF-RE2-luc HIF reporter construct; assay: Luciferase reporter assay in A549 HIF-RE2 reporter cells; format: cell-based, human
Experimental: A549 and HeLa carcinoma cell lines (American Type Culture Collection) were cultured in DMEM/F-12 (Gibco), and Hep3B cells in RPMI medium, both supplemented with antibiotics, L-glutamine and 10% fetal calf serum. A549 cells stably transfected with the HIF-RE2-luc HIF reporter construct (constructed in pGL3, Promega GmbH) were seeded on 384-well plates (Greiner) at a density of 2500 cells/well in a volume of 25 µl complete cell culture medium, and re-incubated for 16–24 h before the test. Test compounds were added at appropriate dilutions in a volume of 10 µl, and cells were re-incubated for 6 h before measurement. Luciferase activity was determined in a luminometer after addition of cell lysis/luciferase buffer. Cell line identities were verified by STR DNA typing (DSMZ GmbH).
As in the enzymatic assay, and in contrast to experiments with iron-chelating agents (data not shown), luciferase activity was not altered by a high concentration of Fe^2+ (50 µM) in the culture medium (Fig. 1G). The high IC50 value observed corresponds well to the low sensitivity of A549 cells shown by western blot analysis.

T1 sequence (Q9GZT9 whole entry): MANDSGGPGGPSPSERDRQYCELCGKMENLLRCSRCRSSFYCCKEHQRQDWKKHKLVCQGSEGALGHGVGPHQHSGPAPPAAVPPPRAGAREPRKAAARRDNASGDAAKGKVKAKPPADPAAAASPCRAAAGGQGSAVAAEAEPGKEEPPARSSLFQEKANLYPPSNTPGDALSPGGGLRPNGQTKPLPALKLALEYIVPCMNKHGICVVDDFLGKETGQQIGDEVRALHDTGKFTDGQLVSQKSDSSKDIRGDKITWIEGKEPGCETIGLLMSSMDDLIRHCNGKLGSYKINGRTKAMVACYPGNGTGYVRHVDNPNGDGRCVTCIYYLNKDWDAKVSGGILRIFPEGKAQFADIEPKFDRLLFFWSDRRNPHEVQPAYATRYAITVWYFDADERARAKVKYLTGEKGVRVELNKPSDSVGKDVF

For `O=c1c(-n2ccnn2)c[nH]n1-c1cc(N2CCOCC2)ncn1` [BAY 85-3934, 2-[6-(morpholin-4-yl)pyrimidin-4-yl]-4-(1H-1,2,3-triazol-1-yl)-1,2-dihydro-3H-pyrazol-3-one], the IC50 ([1]; 20 µM 2-oxoglutarate, 10 µM Fe2+, 2 mM ascorbate) was 0.28 µM, the “increase of potency on lowering 2-oxoglutarate” value ([1]; 2-oxoglutarate lowered from 20 µM to 0.3 µM (Fig. 1A)) was “up to 10 fold” and the “alteration of potency on varying Fe2+ and ascorbate” value ([1]; Fe2+ and ascorbate varied by factors of 30 and 200 (Fig. 1B, C)) was at most 2 fold. The “mean systolic blood pressure” value ([2]; 2.5 mg/kg group) was “almost normalized values”, the “systolic blood pressure versus control and rhEPO-treated animals” value ([2]; 5 mg/kg) was “significantly lower” and the “mean PCV” value ([2]; 5 mg/kg group, 2 weeks after onset of treatment) was “exceeded 50%”. The “systolic blood pressure compared with untreated controls” value ([2]; 5 weeks, tail-cuff) was “sustained reduction”, the “mean PCV” value ([2]; BAY 85-3934 2.5 and 5 mg/kg once daily, rhEPO 100 IU/kg twice weekly) was “significantly increased” and the cardiac hypertrophy ([2]; data not shown) was “complete prevention”. For the same compound, the “plasma prorenin after the decrease in blood pressure” value ([2]; once daily oral, 5 weeks) was “not followed by the return of prorenin to normal levels”, the “fraction of BAY 85-3934 eliminated from the plasma” value ([3]; 6 h after 5 mg/kg oral) was about 90% and the half-life ([3]; rat, plasma, oral, 5 mg/kg, male Wistar rats) was 3.4 h. For the same compound, the bioavailability ([3]; rat, plasma, po, 5 mg/kg, male Wistar rats) was about 38%, the “luciferase activity at high Fe2+ in the culture medium” value ([4]; Fe2+ 50 µM) was “not altered” and the EC50 ([4]; Homo sapiens, A549, 6 h incubation, n = 4, read-out: mean (± SD) EC50 of luciferase reporter induction) was 8.4 ± 0.7 µM.
